Seven compounds from US10947252B2, “Inhibitors of KEAP1-Nrf2 protein-protein interaction” (Janssen Pharmaceutica NV, priority 2018, dated 2021) can be followed below.

The test relates to Glo-Response ARE-luc2P HEK293 cell line. Nature of the test: ARE luciferase reporter cell-based assay.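 Further: luciferase signal tracks Nrf2 activation of the ARE once compounds disrupt KEAP1-Nrf2 binding, read with One-Glo reagent, DMSO serving as low control.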 The settings on record: average of results obtained.

One may read the EC50 as the concentration giving half of the maximal effect. `CCn1nnc2c(C)c([C@H](CC(=O)O)c3ccc(C)c(CN4CC(C)(C)Oc5ccccc5S4(=O)=O)c3)ccc21` (single isomer, unassigned) [Example 159, (*R)-3-(3-((4,4-Dimethyl-1,1-dioxido-3,4-dihydro-2H-benzo[b][1,4,5]oxathiazepin-2-yl)methyl)-4-methylphenyl)-3-(1-ethyl-4-methyl-1H-benzo[d][1,2,3]triazol-5-yl)propanoic Acid] displayed a concentration for a half-maximal effect (EC50) (Homo sapiens, HEK293, 24 h) of 34 nM.
Consider `Cc1cc2cc([C@H](c3ccc(C)c(CN4CC5(CC5)Oc5nc(OCCN6CCCC6)c(C)cc5S4(=O)=O)c3)C(C)(C)C(=O)O)n(C)c2nn1` (single isomer, unassigned) [Example 353, (*R)-3-(3,7-Dimethyl-7H-pyrrolo[2,3-c]pyridazine-6-yl)-2,2-dimethyl-3-(4-methyl-3-((8′-methyl-1′,1′-dioxido-7′-(2-(pyrrolidin-1-yl)-ethoxy)spiro[cyclopropane-1,4′-pyrido[2,3-b][1,4,5]oxathiazepin]-2′-(3′H)-yl)methyl)phenyl)propanoic Acid], for which, for the setting “Homo sapiens, HEK293, 24 h”, the EC50 is 1410 nM.
The same measure, in the same setting: then `CCn1nnc2c(C)c([C@H](CC(=O)O)c3ccc(C)c(CN4C[C@@H]5CCCN5c5ccccc5S4(=O)=O)c3)ccc21` (relative stereo) [Example 149, (*R)-3-[3-[(5,5-Dioxo-7a,8,9,10-tetrahydro-7H-pyrrolo[2,1-d][1,2,5]benzothiadiazepin-6-yl)methyl]-4-methyl-phenyl]-3-(1-ethyl-4-methyl-benzotriazol-5-yl)propanoic Acid], with 250 nM; and `Cc1ccc([C@H](CC(=O)O)c2ccn3c(C(F)(F)F)nnc3c2C)cc1CN1C[C@@H]2CCCCN2c2ccccc2S1(=O)=O` (relative stereo) [Example 299, (*S)-3-(3-(((*S)-5,5-Dioxido-7,7a,8,9,10,11-hexahydro-6H-benzo[f]pyrido[2,1-d][1,2,5]thiadiazepin-6-yl)methyl)-4-methylphenyl)-3-(8-methyl-3-(trifluoromethyl)-[1,2,4]triazolo[4,3-a]pyridin-7-yl)propanoic Acid], with 11.4 nM.
Still for that read-out and setting: the result for `CCc1c([C@H](c2ccc(C)c(CN3C[C@@H]4CCCCN4c4ncc(C)cc4S3(=O)=O)c2)C(C)C(=O)O)ccn2c(C(F)(F)F)nnc12` (relative stereo) [Example 513, (3*S)-3-(8-Ethyl-3-(trifluoromethyl)-[1,2,4]triazolo[4,3-a]pyridin-7-yl)-2-methyl-3-(4-methyl-3-(((*S)-3-methyl-5,5-dioxido-7,7a,8,9,10,11-hexahydro-6H-dipyrido[2,1-d:2′,3′-f][1,2,5]thiadiazepin-6-yl)methyl)phenyl)propanoic Acid] reads 1.63 nM.
On the same count and under the same terms, the result for `Cc1cnc2c(c1)S(=O)(=O)N(Cc1cc([C@H](CC(=O)O)c3ccn4c(C(F)(F)F)nnc4c3C)ccc1C)CC1(CC1)O2` (single isomer, unassigned) [Example 27, (*S)-3-(4-Methyl-3-((8′-methyl-1′,1′-dioxidospiro[cyclopropane-1,4′-pyrido[2,3-b][1,4,5]oxathiazepin]-2′(3′H)-yl)methyl)phenyl)-3-(8-methyl-3-(trifluoromethyl)-[1,2,4]triazolo[4,3-a]pyridin-7-yl)propanoic Acid] reads 28.8 nM.
`Cc1ccc([C@@H](CC(=O)O)c2ccn3c(C(F)(F)F)nnc3c2C)cc1CN1C[C@@H]2COCCN2c2ncccc2S1(=O)=O` (relative stereo) [Example 277, (*R)-3-(3-(((*R)-5,5-Dioxido-7a,8,10,11-tetrahydro-[1,4]oxazino[3,4-d]pyrido[2,3-f][1,2,5]thiadiazepin-6(7H)-yl)methyl)-4-methylphenyl)-3-(8-methyl-3-(trifluoromethyl)-[1,2,4]triazolo[4,3-a]pyridin-7-yl)propanoic Acid]: where the note is “24 hours”, the EC50 worked out at 102 nM.
